Laboratory results: PubChem BioAssay AID1159559 (GlaxoSmithKline (GSK), 2015)
Activity calls are given as the source filed them.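 Rule for the calls: active = compounds whose IC50 against parasite growth in infected mouse cells is below 50000 nM; inactive = the rest.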

System: T. cruzi Tulahuen in NIH-3T3, beta-gal fluorescence, 4 d
Assay: anti-Chagas amastigote proliferation inhibitors – cell-based (AID 1159559)

Row | Structure (SMILES) | IC50
1 | NS(=O)(=O)c1ccc(CNC(=O)c2ccc([N+](=O)[O-])s2)cc1 | 1000 nM
2 | CCOC(=O)c1cn[nH]c1S(=O)(=O)N1CCC1c1ccccc1 (stereo unspecified) | > 50000 nM (inactive)
3 | O=C(NCCCn1cnc2ccccc21)c1ccc(NC(=O)c2ccco2)cc1 | 4000 nM
4 | Cc1occc1C(=O)Nc1ccccc1C(=O)Nc1nccs1 | > 50000 nM (inactive)
5 | COc1ccc2c(Cl)c(C(=O)N3CCC3)sc2c1Cl | 400 nM
6 | CCC(=O)Nc1ccc(-c2nc3ccc(Cl)cc3[nH]2)cc1 | 2000 nM
7 | CN(C)c1ccc(-c2cc3nccnc3c(OC[C@H]3CCCNC3)n2)cn1 | 1600 nM
8 | CCC(CC)C(=O)Nc1cccc(C(=O)Nc2nnc(C3CCCCC3)s2)c1 | 10000 nM
9 | COc1ccc(-c2nc3ncccc3o2)cc1NC(=O)c1cccs1 | 2000 nM
10 | NC(=O)c1ccc(-c2cccc(OCCN3CCN(C4CCCCC4)CC3)c2)cc1 | 1600 nM
11 | N#CN1CC[C@@H](NC(=O)Nc2ccccc2Oc2ccccc2)C1 | 5000 nM
12 | N#Cc1c(Oc2cccc(Cl)c2)cccc1[N+](=O)[O-] | 320 nM
13 | COc1cccc(NS(=O)(=O)c2ccc3[nH]cc(C(=O)NCCC(C)C)c(=O)c3c2)c1 | > 50000 nM (inactive)
14 | COc1ccc2ncc(F)c(NC(=O)C3(O)CCC(NCc4ccc5c(c4)OCCO5)CC3)c2n1 (stereo unspecified) | 160 nM
15 | COc1ccc(C(=O)Nc2c(C)nn(COc3cccc(C(F)(F)F)c3)c2C)cc1 | 25000 nM
16 | O=c1cc(NCCCNCc2c[nH]c3ccc(Br)cc23)[nH]c2ccccc12 | > 50000 nM (inactive)
17 | CN(C)CCOc1ccc(N2CCN(S(=O)(=O)c3ccc(Cl)cc3)CC2)cc1 | 630 nM
18 | CNc1nc(C)nc(N2CCc3cc(C(=O)NCc4ccc(-c5nccn5C)cc4Cl)ccc32)n1 | 5000 nM
19 | O=C(NCCc1csc(-c2cccc(F)c2)n1)c1ccco1 | 1600 nM
20 | CS(=O)(=O)c1cccc(-c2cnc(N)c3c(-c4ccc(CO)cc4)csc23)c1 | 790 nM
21 | CCC(=O)Nc1ccc(C(=O)Nc2ccccc2-c2ccccc2)cc1 | 500 nM
22 | CS(=O)(=O)c1cccc(CNC(=O)c2cncc(N3CCN(c4ccc(F)cc4)CC3)c2)c1 | 630 nM
23 | N#Cc1ccc(S(=O)(=O)N2CCN(Cc3cccc(-c4ccncc4)c3)CC2)cc1 | 400 nM

Row | Structure (SMILES) | IC50
24 | COc1ccc(NS(=O)(=O)c2cc(NC(=O)c3ccc([N+](=O)[O-])s3)ccc2OC)cc1 | 63 nM
25 | COc1ccc2ncc(=O)n(CCN3CC[C@H](NCc4ncc(Cl)c5[nH]ncc45)[C@H](O)C3)c2n1 | 4000 nM
26 | Cc1nc(-c2ccncc2)ncc1C(C)NC(=O)c1ccc(Cl)s1 (stereo unspecified) | 25000 nM
27 | Cn1c(CN2CCN(c3ncc(C(F)(F)F)cc3Cl)CC2)nc2ccncc21 | 790 nM
28 | NC(=O)c1ccccc1Nc1nc(NC2CCCCC2)nc2[nH]ccc12 | 1000 nM
29 | O=C(Cc1ccccc1)Nc1[nH]nc2sc(C(=O)NC3CCCC3)cc12 | 7900 nM
30 | O=C(Nc1nc(-c2ccccn2)cs1)c1ccccc1-n1cnnn1 | 3200 nM
31 | Cn1nc(-c2ccc(NC(=O)Cc3ccccc3Cl)cc2)c2c(N)ncnc21 | 2000 nM
32 | CCOc1ccc(NC(=O)c2ccc(NC(=O)NC3CCCCC3)cc2)cc1 | 32000 nM
33 | Cc1c(C#N)c([N+](=O)[O-])nn1Cc1cccc(Cl)c1Cl | 200 nM
34 | CNc1cc(C)nc(C2CN(C(=O)c3n[nH]c4ccccc34)CCO2)c1 (stereo unspecified) | 1300 nM
35 | O=C(CN1CCN(c2ccccn2)CC1)Nc1cc(S(=O)(=O)N2CCCCCC2)ccc1Cl | 10000 nM
36 | COCc1cnc2c(c1SCc1c(F)cccc1Cl)c(=O)n(C)c(=O)n2C | > 50000 nM (inactive)
37 | COc1cccc(CCNC(=O)C(c2cn[nH]c2)N2CCN(c3ccc(Cl)cc3)CC2)c1 (stereo unspecified) | 20 nM
38 | COCCn1c(-c2ccc3c(c2)OCO3)cnc1NCc1ccccc1OC | 7900 nM
39 | Cc1ccccc1NS(=O)(=O)c1ccc2[nH]cc(C(=O)NC3CCCCC3)c(=O)c2c1 | 10000 nM
40 | COc1ccc(C2CC(c3ccc(NS(C)(=O)=O)cc3)=NN2C(=O)c2cccs2)cc1OC (stereo unspecified) | 25000 nM
41 | O=C1c2cnc(N3CCCC3)nc2CN1c1ccc2c(c1)OCO2 | 2500 nM
42 | O=C(Nc1cccc(S(=O)(=O)Nc2ccc(Br)cc2)c1)c1ccc([N+](=O)[O-])s1 | 100 nM
43 | CN1C(=O)c2ccccc2Sc2ccc(NC(=O)NCc3ccco3)cc21 | 10000 nM
44 | COc1cccc(C(=O)[C@H]2C[C@@H]2CN(Cc2ccccn2)Cc2ccccn2)c1 | 1300 nM
45 | CCC(CC)C(=O)Nc1ccc(-c2nnc(-c3ccc(OC)cc3)o2)cc1 | 5000 nM
46 | O=C(N[C@H](CO)c1ccccc1)c1ccc(-c2c[nH]c3nccc(C(F)(F)F)c23)s1 | 7900 nM

Row | Structure (SMILES) | IC50
47 | COc1ccc(C)cc1-c1csc(NC(=O)C(C)n2ccnc2)n1 (stereo unspecified) | 63 nM
48 | O=C(Cn1cnc2cc([N+](=O)[O-])ccc2c1=O)NCCc1ccc(Cl)cc1Cl | 630 nM
49 | COCc1cc(Nc2ccc(Cl)cc2)nc(-c2ccccn2)n1 | 1600 nM
50 | CCc1c(C)nc(-n2nc(C)cc2NC(=O)COc2ccccc2F)[nH]c1=O | 630 nM
51 | COc1ncc(-c2ccc3nccc(-c4ccncc4)c3c2)cc1NS(C)(=O)=O | 1600 nM
52 | Clc1ccc(OCCN2CCCCC2c2cccnc2)c(Cl)c1 (stereo unspecified) | 400 nM
53 | COc1cc(Cl)c(C)cc1NC(=O)c1ccc([N+](=O)[O-])s1 | 630 nM
54 | CNS(=O)(=O)c1ccccc1Nc1nc(Nc2cc(C)nn2C)ncc1Cl | 400 nM
55 | CC(C)(C)C(O)(CCc1ccc(Cl)cc1)Cn1cncn1 (stereo unspecified) | 130 nM
56 | CCC(=O)N1N=C(c2ccc3c(c2)CCCC3)Sc2c1ncn2C(=O)CC | 6300 nM
57 | COc1ccc(-c2cnc(NC(=O)c3ccc(F)cc3)n2C)cc1 | 2500 nM
58 | Cn1nc(C(=O)N2CCc3ccccc32)c2c1CCS(=O)(=O)C2 | 7900 nM
59 | CC(C)c1cc(C(=O)N2CCCC(c3cc4ncccc4[nH]3)C2)on1 (stereo unspecified) | 2000 nM
60 | O=C(NCCc1nc(-c2ccc(F)c(F)c2)n[nH]1)C1CCCCC1 | 2000 nM
61 | CCOc1ccccc1C(=O)Nc1nnc(-c2ccc3c(c2)OCO3)s1 | 630 nM
62 | CC(C)Nc1nc(Cl)nc2ccccc12 | 4000 nM
63 | Cc1cc(C)nc(N2CCC(N(Cc3cccnc3)C(=O)c3cccc(C#N)c3)CC2)n1 | 320 nM
64 | COc1ccc(CN2CCCCC2c2nc(-c3cccnc3)no2)cc1 (stereo unspecified) | 790 nM
65 | CC(CCc1ccccc1)NC(=O)CN(Cc1ccccn1)Cc1ccccn1 (stereo unspecified) | 2500 nM
66 | O=C(Nc1ccc(Br)c(Cl)c1)Nc1ccc2c(c1)OCO2 | 2500 nM
67 | Nc1nc(-c2ccccc2)cc(-c2nc3ncccc3[nH]2)n1 | 3200 nM
68 | O=C(Nc1nc2ccccc2[nH]1)c1ccc2nc[nH]c2c1 | 25000 nM
69 | CCCc1cc(C(=O)Nc2ncc(-c3cccc(Br)c3)n2C)n[nH]1 | 2500 nM

Row | Structure (SMILES) | IC50
70 | c1ccc(Nc2nc3ccccc3[nH]2)nc1 | 7900 nM
71 | COc1ccc(Nc2nc(-c3ccccn3)cc(N3CCCC(O)C3)n2)cc1 (stereo unspecified) | 630 nM
72 | Nc1nccc(-c2csc(Nc3ccc(Cl)cc3)n2)n1 | 1300 nM
73 | c1ccc(CNc2cccc3ccncc23)cc1 | 6300 nM
74 | N#Cc1nc(C=Cc2ccccc2)oc1NCc1cccnc1 | 250 nM
75 | O=S(=O)(c1cccc(CSc2nnc(-c3ccc4c(c3)OCO4)o2)c1)N1CCOCC1 | 200 nM
76 | CS(=O)(=O)c1ccc(Nc2nccc(Nc3n[nH]c4ccc(F)cc34)n2)c(F)c1 | 7900 nM
77 | Cc1cc(Br)sc1CNCCCNc1cc(=O)c2ccccc2[nH]1 | 1600 nM
78 | COc1ccc(C(=O)Nc2cc(C(F)(F)F)ccc2N2CCOCC2)c(OC)c1 | 1000 nM
79 | CCn1c(NC(=O)Cc2ccc(F)cc2)nc2ccccc21 | 5000 nM
80 | Cc1cc2nc(N3CC[C@H]3C(N)=O)nc(Nc3cc(C4CC4)[nH]n3)c2s1 | 6300 nM
81 | CCCCn1nnnc1CSc1nc(C)cc(C)c1C#N | 320 nM
82 | O=C(c1cccc(Nc2ncc(-c3ccc4c(c3)OCO4)cn2)c1)N1CCOCC1 | 6300 nM
83 | O=C(NCCc1cccnc1)c1csc(-c2ccccc2)n1 | 250 nM
84 | O=C(Nc1nc2cc(Cl)ccc2o1)c1cccc(Cl)c1 | 790 nM
85 | Cc1nc2nc(C)c(Cc3ccc(C(C)C)cc3)c(=O)n2[nH]1 | 500 nM
86 | COc1cc(-c2noc(CC#N)n2)ccc1OC(F)F | 40000 nM
87 | Nc1nonc1-c1nc2cncc(C(=O)N3CC[C@H](N)C3)c2n1CC1CC1 | > 50000 nM (inactive)
88 | O=c1oc2ccccc2n1C1CCN(Cc2ccccc2-c2cccnc2)CC1 | 500 nM
89 | Clc1ccc(CN2CCN(C3=NCCN3)CC2)cc1Cl | 1300 nM
90 | CN(C(=O)Nc1ccc2c(c1)CCN(C1CCC1)CC2)c1ccc(C#N)cc1 | 2000 nM
91 | OCCCNc1nc(Nc2ccncc2)nc2ccccc12 | 630 nM
92 | NC(=O)c1cc(F)ccc1Nc1nc(NC2CCC(O)CC2)ncc1Cl (stereo unspecified) | 4000 nM

Row | Structure (SMILES) | IC50
93 | Cc1ccnc(NS(=O)(=O)c2ccc(NC(=O)c3ccc([N+](=O)[O-])s3)cc2)n1 | 2000 nM
94 | O=[N+]([O-])c1ccc(-c2nnn(-c3ccc(Cl)cc3)n2)o1 | 250 nM
95 | Cc1sc(C)c(C(F)(F)F)c1CNCCCNc1cc(=O)c2ccccc2[nH]1 | 790 nM
96 | CCCCc1cc(Nc2cc(C3CCC3)[nH]n2)nc(N2CCC2C(N)=O)n1 (stereo unspecified) | 3200 nM
97 | CCOc1ccc(OCC(=O)N2c3ccccc3CC2C(=O)NC)cc1 (stereo unspecified) | > 50000 nM (inactive)
98 | CCOc1ccc(NC(=O)C=Cc2ccc(CC)o2)cc1 | 2000 nM
99 | O=C(NCCc1cccnc1)c1ccc(-c2ccccc2F)o1 | 100 nM
100 | CCS(=O)(=O)c1cccc(C(=O)Nc2nc(-c3ccccn3)cs2)c1 | 1600 nM
101 | O=C(Cn1cnc([N+](=O)[O-])n1)Nc1ccc(Cl)cc1C(=O)c1ccccc1 | 250 nM
102 | Cc1nc(-c2nc(NCc3ccc(Cl)cc3)c3cccnc3c2O)n[nH]1 | 630 nM
103 | O=[N+]([O-])c1ccc(-c2nnn(-c3cccnc3)n2)o1 | 250 nM
104 | CCC(=O)Nc1ccccc1C(=O)Nc1ccccn1 | > 50000 nM (inactive)
105 | COc1ccc(S(=O)(=O)Nc2ccccc2OC)cc1NC(=O)CCCc1c[nH]c2ccccc12 | 1600 nM
106 | COc1ccc2ncc(=O)n(CCN3CCC(NCc4ccc(-c5cccs5)cc4)CC3)c2n1 | 2000 nM
107 | CCOc1ccc(CN(C)Cc2nc(N)nc(Nc3ccc(C)cc3)n2)cc1 | 6300 nM
108 | O=C(Nc1ccc(Br)cn1)c1ccc(Cn2cnc([N+](=O)[O-])n2)cc1 | 160 nM
109 | N#Cc1cc([N+](=O)[O-])ccc1NC1CCCCCC1 | 2500 nM
110 | Cc1ccc(CNC2CCN(C[C@@H]3Cn4c(=O)ccc5ccc(=O)n3c54)CC2)cc1F | 1300 nM
111 | Cc1cc(C)n(-c2nc(NC(C)(C)C)nc(N3CCOCC3)n2)n1 | 5000 nM
